The text below walks through data of patent US20020107197A1, “Ligands for G protein coupled receptors and methods of using them” (priority 2000, published 2002).

Holding throughout (type): cell-based, human
For one experiment, the system named is HEY ovarian cancer cells. Description: DNA synthesis / growth of HEY ovarian cancer cells with SPC and phage preparations. The settings on record: SPC 10 μM. On the procedure:
To determine if these selected phage clones were capable of blocking a biological effect of SPC, we mixed phage preparations with SPC. After a 30 min incubation, this mixture was added to HEY cells and its effect on SPC-induced cell proliferation was tested. If a phage clone was carrying a specific sequence which binds to SPC, the addition of the phage to SPC could block the effect of SPC on HEY cells.

The next experiment has as its system GPR4. Description: GPR4 expression in Jurkat cells by real-time quantitative RT-PCR. The settings on record: 0.1 and 1 μM LPC, up to 24 hours. On the procedure:
(§1) Jurkat cells were treated with 0.1 and 1 μM LPC for various times (1, 2, 6, and 24 hours). At each time point, cells were collected and total RNA was extracted. Real-time quantitative PCR was utilized to determine relative amounts of GPR4 (shown in FIG. 1A and TDAG8 (shown in FIG. 1B) expressed under each condition. All PCR reactions were performed in triplicate.
(§2) In one scheme, total RNA is extracted from tissues using the RNeasy Total RNA System (Qiagen, Valencia, Calif.). One to five micrograms of total RNA are reverse transcribed using Superscript II RT (Gibco BRL, Rockville, Md.). Eight nanograms of derived cDNA are used as a template for real-time quantitative SYBR Green I PCR. Specific primers, that have already been established and used under these same conditions, are used for each individual receptor, with GAPDH being amplified in a separate tube as a housekeeping gene. The primers for GPR4 (Genbank accession number U2105 1) are 5′-[…]-3′ [SEQ ID NO. 1] and 5′-TCCAGTTGTCGTGGTGCAG-3′ [SEQ ID NO. 2] […] Amplified product is detected by measurement of SYBR Green I, which is added to the initial reaction mixture. […] The results are expressed as a fold-change in receptor expression levels compared to a baseline sample.
(§3) Jurkat cells were treated with 0.1 and 1 μM LPC for up to 24 hours followed by expression analysis of GPR4 and TDAG8 levels with real-time quantitative RT-PCR.

In the next experiment the test system is TDAG8. Description: TDAG8 expression in Jurkat cells by real-time quantitative RT-PCR. The settings on record: 0.1 and 1 μM LPC, up to 24 hours. On the procedure:
as §1, §2, §3

Regarding `CCCCCCCCCCCCC/C=C/[C@@H](O)[C@@H](N)COP(=O)([O-])OCC[N+](C)(C)C` [SPC, Sphingosylphosphorylcholine], the “effect on DNA synthesis in HEY cells” value in the experiment with HEY ovarian cancer cells is “inhibited DNA synthesis”.

Consider lysophosphatidylcholine [LPC], for which the “regulation of GPR4 expression” value in the experiment with GPR4 is “time- and dose-dependent up regulation”. Further, the “regulation of TDAG8 expression” value in the experiment on TDAG8 was “time- and dose-dependent up regulation”.
